We go through 13 molecules from ChEMBL document CHEMBL1127889 (Bioorg Med Chem Lett, 1994).

The target of test [1] is T1, Neprilysin (Rattus norvegicus, UniProt P07861).
T1 sequence (P07861 whole entry): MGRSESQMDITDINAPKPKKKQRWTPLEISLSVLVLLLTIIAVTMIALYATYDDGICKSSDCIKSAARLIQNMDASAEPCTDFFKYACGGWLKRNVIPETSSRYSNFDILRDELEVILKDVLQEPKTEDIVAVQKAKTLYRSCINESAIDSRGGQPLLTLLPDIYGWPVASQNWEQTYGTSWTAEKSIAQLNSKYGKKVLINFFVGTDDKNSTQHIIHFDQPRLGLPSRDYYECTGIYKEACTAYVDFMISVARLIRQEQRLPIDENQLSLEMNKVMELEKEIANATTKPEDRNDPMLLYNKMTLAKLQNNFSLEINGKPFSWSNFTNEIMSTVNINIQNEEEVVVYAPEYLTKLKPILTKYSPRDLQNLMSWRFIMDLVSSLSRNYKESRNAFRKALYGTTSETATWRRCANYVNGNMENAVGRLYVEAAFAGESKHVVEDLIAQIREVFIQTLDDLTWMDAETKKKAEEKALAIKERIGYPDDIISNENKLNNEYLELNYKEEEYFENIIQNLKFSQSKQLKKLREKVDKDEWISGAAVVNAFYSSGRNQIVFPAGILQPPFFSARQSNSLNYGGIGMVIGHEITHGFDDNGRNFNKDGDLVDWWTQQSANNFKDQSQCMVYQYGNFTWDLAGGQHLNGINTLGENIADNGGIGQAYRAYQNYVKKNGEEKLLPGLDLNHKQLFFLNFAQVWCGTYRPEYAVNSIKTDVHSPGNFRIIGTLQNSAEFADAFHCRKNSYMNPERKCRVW
Kind of test: Inhibitory activity against neutral endopeptidase (NEP)prepared from microsomal fractions of rat small intestine.

A short description of test [2]: Selectivity ratio against ECE/NEP.
Test [3] deals with T2, Endothelin-converting enzyme 1 (Bos taurus) (UniProt P42891).
T2 sequence (whole entry): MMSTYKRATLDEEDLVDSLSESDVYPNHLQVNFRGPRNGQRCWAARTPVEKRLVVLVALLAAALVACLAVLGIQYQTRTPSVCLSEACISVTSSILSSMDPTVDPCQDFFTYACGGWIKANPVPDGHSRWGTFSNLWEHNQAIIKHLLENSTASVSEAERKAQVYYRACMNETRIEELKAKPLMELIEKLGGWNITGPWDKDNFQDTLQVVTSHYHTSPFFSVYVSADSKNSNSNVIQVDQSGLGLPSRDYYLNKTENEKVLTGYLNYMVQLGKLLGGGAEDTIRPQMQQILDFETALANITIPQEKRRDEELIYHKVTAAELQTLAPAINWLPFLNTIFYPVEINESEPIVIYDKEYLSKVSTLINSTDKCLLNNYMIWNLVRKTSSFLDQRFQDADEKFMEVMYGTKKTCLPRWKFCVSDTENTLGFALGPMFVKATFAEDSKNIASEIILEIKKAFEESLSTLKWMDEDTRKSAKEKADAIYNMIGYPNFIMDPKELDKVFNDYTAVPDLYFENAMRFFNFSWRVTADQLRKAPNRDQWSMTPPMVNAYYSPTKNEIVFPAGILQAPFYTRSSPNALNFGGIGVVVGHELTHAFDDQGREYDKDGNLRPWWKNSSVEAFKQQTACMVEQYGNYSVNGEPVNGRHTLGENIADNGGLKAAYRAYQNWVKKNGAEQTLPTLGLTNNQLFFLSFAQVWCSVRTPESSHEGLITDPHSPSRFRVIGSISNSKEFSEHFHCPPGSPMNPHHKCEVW
Kind of test: Inhibitory activity against Endothelin converting enzyme (ECE) prepared from the microsomal fractions of bovine cultured endothelial cells at a concentration of 100 uM. It counts as cell-based. The settings on record: Endothelial cell.

The target in test [4] is T3, Endothelin-converting enzyme 1 (Bos taurus, UniProt P42891).
T3 sequence (P42891 whole entry): T2 sequence (whole entry)
The experiment in a line: Inhibition of Endothelin-converting enzyme (ECE) from microsomal fractions of bovine cultured endothelial cells. The format is cell-based, Endothelial cell.

The target of test [5] is T2, Endothelin-converting enzyme 1 (Bos taurus). Kind of test: Inhibitory activity against Endothelin-converting enzyme (ECE) prepared from the microsomal fractions of bovine cultured endothelial cells at a concentration of 100 uM. It counts as cell-based. The settings on record: Endothelial cell.

In the case of `CC(C)C[C@H](NC(CCc1cccc2ccccc12)P(=O)(O)O)C(=O)N[C@@H](Cc1c[nH]c2ccccc12)C(=O)O` (stereo partly specified), the IC50 in test [1] amounted to 0.14 µM; in test [4], 0.26 µM. Besides, in test [2], the Ratio was determined as 540. In test [3], the inhibition was determined as 31%.

Take `CCCC(N[C@@H](CC(C)C)C(=O)N[C@@H](Cc1c[nH]c2ccccc12)C(=O)O)P(=O)(O)O` (stereo partly specified): the IC50 in test [1] came to 0.55 µM; in test [4] it was 15 µM. For the same molecule, the Ratio in test [2] was 37.

As for `CC(C)C[C@H](NC(CCc1ccccc1)P(=O)(O)O)C(=O)N[C@@H](Cc1c[nH]c2ccccc12)C(=O)O` (stereo partly specified), the results for the IC50 in test [1] and in test [4] were 0.13 µM and 1.1 µM, respectively. For the same molecule, the Ratio in test [2] was determined as 120. This molecule displayed an inhibition in test [5] of 33%.

On to `CC(C)C[C@H](NC(CCCc1ccccc1)P(=O)(O)O)C(=O)N[C@@H](Cc1c[nH]c2ccccc12)C(=O)O` (stereo partly specified), for which the IC50 in test [1] stood at 1.1 µM; in test [4], 7.1 µM. Besides, the Ratio in test [2] was 150. Further, the inhibition in test [5] was found to be 38%.

For the molecule `CC(C)C[C@H](NC(CCc1c[nH]c2ccccc12)P(=O)(O)O)C(=O)N[C@@H](Cc1c[nH]c2ccccc12)C(=O)O` (stereo partly specified), the IC50 in test [1] is 0.56 µM; in test [4] it was 1.9 µM. Moreover, the Ratio in test [2] stood at 290.

With `CC(C)C[C@H](NP(=O)(O)O)C(=O)N[C@@H](Cc1c[nH]c2ccccc12)C(=O)O`, in test [4], the IC50 is 0.96 µM.

Consider `CC(C)C[C@H](NC(CCc1ccc(O)cc1)P(=O)(O)O)C(=O)N[C@@H](Cc1c[nH]c2ccccc12)C(=O)O` (stereo partly specified), for which the concentration for half-maximal inhibition (IC50) in test [1] turned out to be 0.13 µM; in test [4] it was 3 µM. In addition, the Ratio in test [2] stood at 43. In test [5], the inhibition was 42%.

With `CC(C)C[C@H](NCP(=O)(O)O)C(=O)N[C@@H](Cc1c[nH]c2ccccc12)C(=O)O`, the figures for the IC50 in test [1] and in test [4] were 0.024 µM and 3.4 µM, respectively. Besides, in test [2], the Ratio came to 7.1.

In test [4], `CC(C)C[C@H](NP(=O)(O)O)C(=O)N[C@@H](Cc1cccc2ccccc12)C(=O)O` displayed an IC50 of 7.4 µM.

With `CC(C)[C@H](NP(=O)(O)O)C(=O)N[C@@H](CC(N)=O)C(=O)O`, the inhibition in test [5] came to 14%.

`CC[C@@H](C)[C@H](NP(=O)(O)O)C(=O)N[C@@H](Cc1c[nH]c2ccccc12)C(=O)O`: the IC50 in test [4] stood at 2.8 µM.

Take `CCCC[C@H](NP(=O)(O)O)C(=O)N[C@@H](Cc1c[nH]c2ccccc12)C(=O)O`: in test [4], 1.5 µM corresponded to half-maximal inhibition (IC50).

In the case of `CC(C)C[C@H](NP(=O)(O)OC1O[C@@H](C)[C@H](O)[C@@H](O)[C@H]1O)C(=O)N[C@@H](Cc1c[nH]c2ccccc12)C(=O)O` (single isomer, unassigned) [PHOSPHORAMIDON], in test [1], half-maximal inhibition (IC50) was put at 0.0042 µM.
